Experimental data as given in ChEMBL document CHEMBL4706721, “Novel Pyridazinones as TRPC5 Inhibitors for Treating Kidney Diseases” (ACS Med Chem Lett, 2021).

target: T1, Short transient receptor potential channel 5 (Homo sapiens, UniProt Q9UL62); experiment: Inhibition of human TRPC5 expressed in HEK293-T-REx cells assessed as decrease in riluzole-induced calcium response preincubated for 5 min followed by riluzole stimulation by Fluo-4 AM dye based FLIPR assay; type: cell-based
T1 sequence (Q9UL62 whole entry): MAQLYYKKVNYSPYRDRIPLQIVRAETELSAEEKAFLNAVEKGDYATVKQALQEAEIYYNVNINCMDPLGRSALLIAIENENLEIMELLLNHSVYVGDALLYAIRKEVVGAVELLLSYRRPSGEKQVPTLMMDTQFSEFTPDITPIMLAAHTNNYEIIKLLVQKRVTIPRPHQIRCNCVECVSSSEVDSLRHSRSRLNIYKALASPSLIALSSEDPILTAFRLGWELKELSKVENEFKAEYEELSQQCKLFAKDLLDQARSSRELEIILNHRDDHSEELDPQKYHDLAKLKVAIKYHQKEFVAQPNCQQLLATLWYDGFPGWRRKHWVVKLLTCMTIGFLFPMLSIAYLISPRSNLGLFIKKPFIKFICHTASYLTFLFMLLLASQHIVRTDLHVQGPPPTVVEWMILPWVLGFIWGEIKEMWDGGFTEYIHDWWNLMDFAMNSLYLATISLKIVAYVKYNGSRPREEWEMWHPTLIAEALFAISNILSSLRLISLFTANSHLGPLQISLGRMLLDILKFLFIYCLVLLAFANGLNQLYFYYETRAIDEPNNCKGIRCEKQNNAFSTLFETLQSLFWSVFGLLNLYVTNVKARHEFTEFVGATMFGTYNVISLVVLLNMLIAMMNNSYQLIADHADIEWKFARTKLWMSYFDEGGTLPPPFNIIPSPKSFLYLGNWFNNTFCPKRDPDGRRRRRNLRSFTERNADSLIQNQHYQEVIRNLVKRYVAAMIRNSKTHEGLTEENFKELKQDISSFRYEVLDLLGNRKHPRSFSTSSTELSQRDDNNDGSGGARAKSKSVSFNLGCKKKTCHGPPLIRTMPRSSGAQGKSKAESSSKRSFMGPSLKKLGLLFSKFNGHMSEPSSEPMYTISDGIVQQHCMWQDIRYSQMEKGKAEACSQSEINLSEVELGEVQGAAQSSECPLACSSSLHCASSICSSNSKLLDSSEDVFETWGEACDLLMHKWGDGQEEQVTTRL

Row | Structure (SMILES) | IC50
1 | CCc1c(F)cccc1Oc1ncnc2c1CCN(c1cn[nH]c(=O)c1Cl)C2 | ≤ 50 nM
2 | O=c1[nH]ncc(N2CCc3c(ncnc3N(CCO)c3ccc(F)cc3C(F)(F)F)C2)c1Cl | ≤ 50 nM
3 | O=c1[nH]ncc(N2CCc3c(ncnc3Oc3ccccc3C(F)(F)F)C2)c1Cl | ≤ 50 nM
4 | O=c1[nH]ncc(N2CCc3c(ncnc3Oc3ccc(F)cc3Cl)C2)c1Cl | ≤ 50 nM
5 | CN(c1cnccc1C(F)(F)F)c1ncnc2c1CCN(c1cn[nH]c(=O)c1Cl)C2 | ≤ 50 nM
